Literature values in patent publication US20110027361A1, “EXTENDED RELEASE DOSAGE FORM OF PALIPERIDONE” (TORRENT PHARMACEUTICALS LTD., priority 2008, published 2011).

Tests used:
[1] = in vivo

Cc1nc2n(c(=O)c1CCN1CCC(c3noc4cc(F)ccc34)CC1)CCCC2O (stereo not shown) [Paliperidone]
terminal elimination half-life [1]: approximately 23 hours | solubility in 0.1N HCl (0.1N HCl): sparingly soluble | solubility in methylene chloride (methylene chloride): sparingly soluble | solubility in water (water): practically insoluble
